The record followed here is PubChem BioAssay AID1845194 (Molecular Pharmacology Branch, DTP, NCI, 2023).

For this test, the system named is 287954-098-R-J1 tumor spheroid viability. Description: Anticancer human tumor 287954-098-R-J1 patient-derived Ewing sarcoma cell line growth inhibition. The following applies: spheroids with HUVEC and MSC; for viability, T/C: stronger effect = lower value. In outline: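 Complex tumor spheroids combined malignant cells with endothelial cells and mesenchymal stem cells. DNA-damaging drugs and DNA repair inhibitors were tested alone and in combination, at half-log dilutions down from clinical Cmax (top 10 microM if Cmax unknown), 0.25% DMSO final.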

Each structure is given as a SMILES string.
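Note: spheroids exposed to compound for 7 days before viability readout.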
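Throughout, for viability, T/C: luminescent signal taken as surrogate of viable cell content; 100% = DMSO vehicle control viability and lower means growth inhibition.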

In the case of `CNCc1ccc(-c2cc(-c3nc(-c4ccc(S(=O)(=O)C(C)C)cc4)cnc3N)on2)cc1` + COc1cc2c(cc1O)CCNC21CSC2c3c(OC(C)=O)c(C)c4c(c3C(COC1=O)N1C(O)C3Cc5cc(C)c(OC)c(O)c5C(C21)N3C)OCO4, the IC50 – broadly, the concentration needed to halve the response being measured – is, setting by setting: (curve of first compound, second compound 30 pM) 516 nM; (curve of first compound, second compound 94.9 pM) 207 nM; (curve of first compound, second compound 0.0003 µM) 154 nM; (curve of first compound, second compound 0.000949 µM) under 9.49 nM; (curve of first compound, second compound 0.003 µM) under 9.49 nM. Further, the viability, T/C (usually the ratio of treated to control) reads like this: (second compound 30 pM, first compound 0.00949 µM) 109%; (second compound 30 pM, first compound 0.03 µM) 108%; (second compound 30 pM, first compound 0.0949 µM) 110%; (second compound 30 pM, first compound 0.3 µM) 94.5%; (second compound 30 pM, first compound 0.949 µM) 0.18%; (second compound 30 pM, first compound 3 µM) 0.12%. The viability, T/C runs as follows: (second compound 94.9 pM, first compound 0.00949 µM) 111%; (second compound 94.9 pM, first compound 0.03 µM) 106%; (second compound 94.9 pM, first compound 0.0949 µM) 113%; (second compound 94.9 pM, first compound 0.3 µM) 21.7%; (second compound 94.9 pM, first compound 0.949 µM) 0.11%; (second compound 94.9 pM, first compound 3 µM) 0.14%. The viability, T/C by setting is: (second compound 0.0003 µM, first compound 0.00949 µM) 110%; (second compound 0.0003 µM, first compound 0.03 µM) 115%; (second compound 0.0003 µM, first compound 0.0949 µM) 85.7%; (second compound 0.0003 µM, first compound 0.3 µM) 0.62%; (second compound 0.0003 µM, first compound 0.949 µM) 0.04%; (second compound 0.0003 µM, first compound 3 µM) 0.13%. The viability, T/C runs as follows: (second compound 0.000949 µM, first compound 0.00949 µM) 0.42%; (second compound 0.000949 µM, first compound 0.03 µM) 0.41%; (second compound 0.000949 µM, first compound 0.0949 µM) 0.26%; (second compound 0.000949 µM, first compound 0.3 µM) 0.07%; (second compound 0.000949 µM, first compound 0.949 µM) 0.03%; (second compound 0.000949 µM, first compound 3 µM) 0.14%. The viability, T/C (second compound 0.003 µM, first compound 0.00949 µM) was 0.21%; the viability, T/C (second compound 0.003 µM, first compound 0.03 µM) was 0.22%; the viability, T/C (second compound 0.003 µM, first compound 0.0949 µM) is 0.18%; the viability, T/C (second compound 0.003 µM, first compound 0.3 µM) is 0.17%; the viability, T/C (second compound 0.003 µM, first compound 0.949 µM) was 0.16%; the viability, T/C (second compound 0.003 µM, first compound 3 µM) was 0.24%.

With `Cn1nnc2c(C(N)=O)ncn2c1=O`, the viability, T/C reads like this: (compound 1 µM) 101% [middle of 10 runs]; (compound 3.16 µM) 101% [middle of 10 runs]; (compound 10 µM) 105% [middle of 10 runs]; (compound 31.6 µM) 111% [middle of 10 runs]; (compound 100 µM) 100% [middle of 10 runs]. For the setting “compound alone, run of 10/17/2019”, the IC50 is over 100000 nM.
